Values belong to the compound of their own block, whether it stands above or below them. Activity calls are given as the source filed them. Unless noted, the calls are words filed in the database; no cut-off is given here.
Columns and labels:
[1] = molecular target: T1, Voltage-dependent T-type calcium channel subunit alpha-1H (Homo sapiens, UniProt O95180); format: functional
[2] = molecular target: T1, Voltage-dependent T-type calcium channel subunit alpha-1H; assay: Inhibitors of T-Type Calcium Channels. [Related pubchem assays (depositor defined):AID449739, AID463087, AID489005, AID493041, AID504579, AID504584, AID504619, AID504628]; format: functional
[3] = cytotoxicity toward NIH3T3 fibroblasts, dose response, counter-screen, cell-based, ATP luminescence, mouse fibroblasts (AID 2010); format: functional;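 further: cells exposed to compound for about 90 hours before reading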
[4] = inhibitors of intracellular T. cruzi replication, confirmation, NIH3T3 host cells, beta-gal luminescence (AID 2044); format: functional, cell-based;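 further: intracellular parasites grown in NIH/3T3 mouse fibroblasts as host cells; luminescent beta-galactosidase reporter signal from transgenic T. cruzi replicating inside host cells; inhibitors lower the luminescence signal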
Caspase-3 = molecular target: T2, Caspase-3 (Homo sapiens, UniProt P42574); assay: procaspase-3 activation potency of dual hits, dose response, counter-screen for dual procaspase-3/7 activator project, biochemical, absorbance, PC-3 D3A mutant (AID 504328)
T2 sequence (P42574 whole entry): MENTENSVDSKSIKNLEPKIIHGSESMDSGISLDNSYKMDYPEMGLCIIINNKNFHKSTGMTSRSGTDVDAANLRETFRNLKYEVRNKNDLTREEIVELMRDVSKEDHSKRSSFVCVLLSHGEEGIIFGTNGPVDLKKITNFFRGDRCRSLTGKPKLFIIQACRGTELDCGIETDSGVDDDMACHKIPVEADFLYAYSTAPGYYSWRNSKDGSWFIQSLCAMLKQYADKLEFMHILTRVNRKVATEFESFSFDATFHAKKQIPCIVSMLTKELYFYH

[5] = Counterscreen for IDE inhibitors: Luminescence-based cell-based high throughput dose response assay to identify compounds that are cytotoxic to HEK cells. [Related pubchem assays: 434962 (Primary screen (IDE inhibitors in singlicate)), 449730 (Counterscreen (Cytotoxicity in triplicate)), 435028 (Confirmation (IDE inhibitors in triplicate)) …; format: functional; conditions: HEK293
Caspase-7 = Caspase-7 (Homo sapiens, UniProt P55210); assay: procaspase-7 activators, dose response, dual procaspase-3/-7 activator project, biochemical, absorbance, human (AID 504330)
Insulin-degrading enzyme = molecular target: T3, Insulin-degrading enzyme (Homo sapiens, UniProt P14735); assay: Dose Response: Fluorescence polarization-based cell-based high throughput dose response assay for inhibitors of insulin-degrading enzyme (IDE). [Related pubchem assays: 434962 (Primary screen (IDE inhibitors in singlicate)), 449730 (Counterscreen (Cytotoxicity in triplicate)), 435028 (Confirmation (IDE inhibitors in triplicate)), 434984 (Summary …; format: functional
T3 sequence (P14735 whole entry): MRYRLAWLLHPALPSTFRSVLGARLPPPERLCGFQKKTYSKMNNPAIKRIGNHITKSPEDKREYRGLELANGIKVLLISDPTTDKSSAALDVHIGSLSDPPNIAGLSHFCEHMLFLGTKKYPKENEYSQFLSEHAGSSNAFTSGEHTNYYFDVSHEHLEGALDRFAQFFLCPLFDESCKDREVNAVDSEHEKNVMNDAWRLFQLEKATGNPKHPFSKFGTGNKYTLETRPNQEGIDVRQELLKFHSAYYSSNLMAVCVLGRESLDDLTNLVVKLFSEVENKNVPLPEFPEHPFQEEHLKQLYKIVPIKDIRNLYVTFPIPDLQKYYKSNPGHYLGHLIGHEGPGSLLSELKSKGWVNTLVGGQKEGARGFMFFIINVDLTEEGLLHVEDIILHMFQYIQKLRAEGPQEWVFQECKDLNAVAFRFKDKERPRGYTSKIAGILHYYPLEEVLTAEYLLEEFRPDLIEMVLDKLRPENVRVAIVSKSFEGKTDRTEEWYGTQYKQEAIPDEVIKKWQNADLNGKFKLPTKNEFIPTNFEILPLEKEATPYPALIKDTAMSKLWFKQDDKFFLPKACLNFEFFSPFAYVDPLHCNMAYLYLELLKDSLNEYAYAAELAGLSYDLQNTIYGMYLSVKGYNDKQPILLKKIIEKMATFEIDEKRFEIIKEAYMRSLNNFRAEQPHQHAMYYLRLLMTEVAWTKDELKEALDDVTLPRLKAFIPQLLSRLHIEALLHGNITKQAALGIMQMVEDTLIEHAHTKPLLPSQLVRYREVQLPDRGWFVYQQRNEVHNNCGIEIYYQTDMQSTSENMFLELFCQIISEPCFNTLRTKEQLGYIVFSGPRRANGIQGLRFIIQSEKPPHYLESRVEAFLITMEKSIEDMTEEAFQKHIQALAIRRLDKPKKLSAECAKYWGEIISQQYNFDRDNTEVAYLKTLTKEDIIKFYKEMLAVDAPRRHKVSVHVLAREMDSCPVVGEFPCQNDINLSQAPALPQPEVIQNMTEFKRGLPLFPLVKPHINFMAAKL

[6] = molecular target: T4, Corticotropin-releasing factor receptor 2/Corticotropin-releasing factor-binding protein (Homo sapiens, UniProt P24387+Q13324); assay: activators of CRF receptor 2 with binding protein – uHTS hits, confirmation (AID 602473); format: functional; conditions: read-out: EC50_Mean
T4 sequence (Q13324 whole entry): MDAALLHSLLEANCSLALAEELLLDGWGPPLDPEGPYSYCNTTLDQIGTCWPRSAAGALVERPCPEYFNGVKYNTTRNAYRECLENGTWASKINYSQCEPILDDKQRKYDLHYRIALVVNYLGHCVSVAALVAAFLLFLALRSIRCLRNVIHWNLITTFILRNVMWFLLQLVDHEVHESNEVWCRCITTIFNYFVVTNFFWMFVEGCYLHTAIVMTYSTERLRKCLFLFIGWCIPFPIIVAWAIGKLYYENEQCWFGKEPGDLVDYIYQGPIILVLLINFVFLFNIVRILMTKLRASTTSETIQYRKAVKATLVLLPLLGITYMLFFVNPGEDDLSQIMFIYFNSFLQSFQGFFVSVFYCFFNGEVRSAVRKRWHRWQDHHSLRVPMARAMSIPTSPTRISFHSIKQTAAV
T4 sequence (P24387 whole entry): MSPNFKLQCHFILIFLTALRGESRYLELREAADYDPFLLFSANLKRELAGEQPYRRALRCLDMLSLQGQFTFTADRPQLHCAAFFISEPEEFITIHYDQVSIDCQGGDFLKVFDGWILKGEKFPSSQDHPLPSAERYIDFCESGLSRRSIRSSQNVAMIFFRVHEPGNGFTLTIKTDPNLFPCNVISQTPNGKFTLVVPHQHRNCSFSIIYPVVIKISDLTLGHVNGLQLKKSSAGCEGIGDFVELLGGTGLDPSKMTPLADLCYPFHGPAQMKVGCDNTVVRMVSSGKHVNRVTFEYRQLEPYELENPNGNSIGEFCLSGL

[7] = molecular target: T5, Voltage-gated N-type calcium channel alpha-1B subunit/Amyloid beta A4 precursor protein-binding family A member 1 (Homo sapiens, UniProt Q00975+Q02410); assay: disruptors of Mint-PDZ/N-type channel peptide interaction – biochemical, HTRF, set 2, SAR follow-up (AID 434980); format: functional
[8] = molecular target: T5, Voltage-gated N-type calcium channel alpha-1B subunit/Amyloid beta A4 precursor protein-binding family A member 1; assay: disruptors of Mint-PDZ/N-type channel peptide interaction – biochemical, HTRF, SAR follow-up (AID 2489); format: functional
SUMO E1/E2 = SUMO E1/E2 (Homo sapiens, UniProt P63279+Q9UBE0+Q9UBT2); assay: SAR analysis of SUMOylation using HTRF in an in-Vitro dose response assay. [Related pubchem assays (depositor defined):AID2006, AID2011, AID2018, AID2069, AID2658]; format: functional
Neutrophil collagenase = Neutrophil collagenase (Homo sapiens, UniProt P22894); assay: MMP13 inhibition and MMP selectivity, late-stage follow-up, selectivity assay for MMP13 inhibitor project, biochemical, probe development, late stage results, panel member MMP-8 [IC50 Assay] (AID 2067)
Collagenase 3 = Collagenase 3 (Homo sapiens, UniProt P45452); assay: MMP13 inhibition and MMP selectivity, late-stage follow-up, selectivity assay for MMP13 inhibitor project, biochemical, probe development, late stage results, panel member MMP-13 [IC50 Assay] (AID 2067)
[9] = molecular target: Phosphoethanolamine/phosphocholine phosphatase (Homo sapiens, UniProt Q8TCT1); assay: SAR assay for compounds that inhibit PHOSPHO1. [Related pubchem assays (depositor defined):AID1545, AID1565, AID1574]
[10] = molecular target: T6, Mannose-6-phosphate isomerase (Homo sapiens, UniProt P34949); assay: PMI enzyme inhibitors, confirmation, biochemical, fluorescence intensity (AID 1535)
T6 sequence (P34949 whole entry): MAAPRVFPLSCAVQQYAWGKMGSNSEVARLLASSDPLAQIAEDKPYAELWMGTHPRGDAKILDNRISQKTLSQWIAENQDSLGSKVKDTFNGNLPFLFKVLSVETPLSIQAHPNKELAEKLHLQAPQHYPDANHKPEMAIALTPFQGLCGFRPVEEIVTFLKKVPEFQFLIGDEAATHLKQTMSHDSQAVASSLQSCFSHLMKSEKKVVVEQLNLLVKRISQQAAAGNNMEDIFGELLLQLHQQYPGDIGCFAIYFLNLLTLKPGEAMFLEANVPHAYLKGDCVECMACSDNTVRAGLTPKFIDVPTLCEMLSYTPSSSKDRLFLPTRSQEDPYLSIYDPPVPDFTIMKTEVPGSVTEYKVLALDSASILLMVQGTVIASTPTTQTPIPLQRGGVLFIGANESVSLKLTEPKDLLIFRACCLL

Phosphomannomutase 2 = Phosphomannomutase 2 (Homo sapiens, UniProt O15305); assay: Counter screen SAR assay for PMM2 inhibitors via a fluorescence intensity assay. [Related pubchem assays (depositor defined):AID1545, AID1574]
Phosphomannomutase 2, sequence (O15305 whole entry): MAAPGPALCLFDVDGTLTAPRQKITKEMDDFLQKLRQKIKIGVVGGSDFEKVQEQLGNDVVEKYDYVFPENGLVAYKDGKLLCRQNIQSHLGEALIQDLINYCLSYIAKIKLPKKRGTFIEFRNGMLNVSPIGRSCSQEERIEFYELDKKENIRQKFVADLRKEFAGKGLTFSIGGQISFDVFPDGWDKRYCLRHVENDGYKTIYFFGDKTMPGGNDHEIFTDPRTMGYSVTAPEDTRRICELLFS

T5 sequence (Q00975 whole entry): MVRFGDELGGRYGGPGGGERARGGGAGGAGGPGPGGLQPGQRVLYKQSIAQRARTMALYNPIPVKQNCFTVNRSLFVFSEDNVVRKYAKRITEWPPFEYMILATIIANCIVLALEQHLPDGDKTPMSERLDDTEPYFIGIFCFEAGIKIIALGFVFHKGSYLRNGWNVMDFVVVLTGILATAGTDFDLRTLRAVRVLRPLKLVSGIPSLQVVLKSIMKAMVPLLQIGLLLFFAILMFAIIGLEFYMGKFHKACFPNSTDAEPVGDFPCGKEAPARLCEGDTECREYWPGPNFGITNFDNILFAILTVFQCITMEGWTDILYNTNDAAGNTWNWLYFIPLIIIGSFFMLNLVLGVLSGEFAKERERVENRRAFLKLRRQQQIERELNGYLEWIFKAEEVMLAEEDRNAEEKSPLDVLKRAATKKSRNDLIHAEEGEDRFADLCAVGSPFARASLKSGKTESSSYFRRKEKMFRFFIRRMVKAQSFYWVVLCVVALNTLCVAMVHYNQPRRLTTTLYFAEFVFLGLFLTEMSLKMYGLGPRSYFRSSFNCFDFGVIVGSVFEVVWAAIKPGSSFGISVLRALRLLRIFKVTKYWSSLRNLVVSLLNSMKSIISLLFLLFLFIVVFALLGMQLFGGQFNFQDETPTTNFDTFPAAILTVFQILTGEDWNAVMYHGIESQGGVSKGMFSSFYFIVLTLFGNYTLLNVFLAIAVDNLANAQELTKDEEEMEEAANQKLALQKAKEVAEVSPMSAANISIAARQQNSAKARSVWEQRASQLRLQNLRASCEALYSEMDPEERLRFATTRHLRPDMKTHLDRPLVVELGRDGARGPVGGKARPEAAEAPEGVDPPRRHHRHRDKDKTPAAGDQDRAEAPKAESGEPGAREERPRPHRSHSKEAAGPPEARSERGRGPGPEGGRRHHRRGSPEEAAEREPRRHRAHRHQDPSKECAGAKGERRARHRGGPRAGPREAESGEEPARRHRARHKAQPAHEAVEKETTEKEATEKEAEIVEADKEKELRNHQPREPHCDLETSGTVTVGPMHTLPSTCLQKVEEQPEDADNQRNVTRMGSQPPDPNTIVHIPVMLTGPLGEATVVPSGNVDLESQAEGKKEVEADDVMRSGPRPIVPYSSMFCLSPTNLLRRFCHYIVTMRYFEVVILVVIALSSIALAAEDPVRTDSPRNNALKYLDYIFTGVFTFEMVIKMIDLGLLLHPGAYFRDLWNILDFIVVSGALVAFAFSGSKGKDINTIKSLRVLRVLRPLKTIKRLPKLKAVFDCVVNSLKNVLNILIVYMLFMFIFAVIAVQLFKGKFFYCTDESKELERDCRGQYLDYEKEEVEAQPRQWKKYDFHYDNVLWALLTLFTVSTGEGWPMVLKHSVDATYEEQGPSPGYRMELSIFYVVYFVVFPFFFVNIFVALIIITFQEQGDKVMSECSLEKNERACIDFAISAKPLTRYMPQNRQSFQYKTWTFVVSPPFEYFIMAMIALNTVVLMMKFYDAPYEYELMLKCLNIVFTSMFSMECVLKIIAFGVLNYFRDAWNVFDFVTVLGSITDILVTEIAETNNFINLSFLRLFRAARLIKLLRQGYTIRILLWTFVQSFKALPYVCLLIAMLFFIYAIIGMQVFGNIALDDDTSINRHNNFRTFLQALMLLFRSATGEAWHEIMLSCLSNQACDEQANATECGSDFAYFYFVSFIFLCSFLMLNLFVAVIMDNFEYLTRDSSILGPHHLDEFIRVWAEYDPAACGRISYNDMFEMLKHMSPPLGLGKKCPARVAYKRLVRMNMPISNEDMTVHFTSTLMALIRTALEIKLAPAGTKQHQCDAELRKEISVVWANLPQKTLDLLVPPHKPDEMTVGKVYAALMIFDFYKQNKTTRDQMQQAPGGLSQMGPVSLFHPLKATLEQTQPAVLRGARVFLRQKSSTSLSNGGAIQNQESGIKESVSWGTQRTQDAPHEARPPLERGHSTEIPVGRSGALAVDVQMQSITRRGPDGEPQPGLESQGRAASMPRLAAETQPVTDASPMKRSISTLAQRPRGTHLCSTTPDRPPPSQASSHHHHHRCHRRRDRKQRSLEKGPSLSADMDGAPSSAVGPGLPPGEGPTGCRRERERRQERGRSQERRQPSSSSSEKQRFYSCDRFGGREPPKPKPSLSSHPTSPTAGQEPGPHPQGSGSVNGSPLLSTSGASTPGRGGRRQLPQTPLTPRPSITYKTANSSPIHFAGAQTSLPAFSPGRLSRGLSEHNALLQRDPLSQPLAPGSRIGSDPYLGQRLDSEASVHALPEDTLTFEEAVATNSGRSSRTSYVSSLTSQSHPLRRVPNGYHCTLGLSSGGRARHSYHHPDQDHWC
T5 sequence (Q02410 whole entry): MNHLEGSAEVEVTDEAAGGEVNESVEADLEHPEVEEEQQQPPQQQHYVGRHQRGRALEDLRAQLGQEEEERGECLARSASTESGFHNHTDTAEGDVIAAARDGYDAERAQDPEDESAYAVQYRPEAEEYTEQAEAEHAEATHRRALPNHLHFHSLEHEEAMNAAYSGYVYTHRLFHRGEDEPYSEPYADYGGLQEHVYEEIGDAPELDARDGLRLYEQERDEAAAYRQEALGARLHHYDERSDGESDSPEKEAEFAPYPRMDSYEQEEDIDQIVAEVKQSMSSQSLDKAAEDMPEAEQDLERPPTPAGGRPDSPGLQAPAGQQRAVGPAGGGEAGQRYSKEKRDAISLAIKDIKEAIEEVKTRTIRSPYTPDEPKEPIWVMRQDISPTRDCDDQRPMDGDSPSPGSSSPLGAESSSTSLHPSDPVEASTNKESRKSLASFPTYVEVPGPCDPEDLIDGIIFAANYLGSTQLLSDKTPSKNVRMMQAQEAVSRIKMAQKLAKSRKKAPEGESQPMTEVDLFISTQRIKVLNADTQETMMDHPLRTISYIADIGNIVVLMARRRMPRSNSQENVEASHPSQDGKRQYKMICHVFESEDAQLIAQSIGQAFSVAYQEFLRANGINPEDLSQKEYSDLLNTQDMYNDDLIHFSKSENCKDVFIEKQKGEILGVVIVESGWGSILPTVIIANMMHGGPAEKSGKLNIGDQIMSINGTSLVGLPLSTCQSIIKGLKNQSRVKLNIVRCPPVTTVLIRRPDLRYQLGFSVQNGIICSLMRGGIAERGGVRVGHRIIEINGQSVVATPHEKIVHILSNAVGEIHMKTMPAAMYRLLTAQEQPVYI
Phosphoethanolamine/phosphocholine phosphatase, sequence (Q8TCT1 whole entry): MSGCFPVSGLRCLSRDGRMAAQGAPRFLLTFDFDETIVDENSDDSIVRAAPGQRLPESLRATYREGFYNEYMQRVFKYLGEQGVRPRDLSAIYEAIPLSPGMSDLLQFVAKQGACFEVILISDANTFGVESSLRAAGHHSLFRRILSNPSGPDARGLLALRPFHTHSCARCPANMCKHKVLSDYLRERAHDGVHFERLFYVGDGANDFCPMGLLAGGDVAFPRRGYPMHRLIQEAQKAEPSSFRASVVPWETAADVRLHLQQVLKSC
SUMO E1/E2, sequence (Q9UBE0 whole entry): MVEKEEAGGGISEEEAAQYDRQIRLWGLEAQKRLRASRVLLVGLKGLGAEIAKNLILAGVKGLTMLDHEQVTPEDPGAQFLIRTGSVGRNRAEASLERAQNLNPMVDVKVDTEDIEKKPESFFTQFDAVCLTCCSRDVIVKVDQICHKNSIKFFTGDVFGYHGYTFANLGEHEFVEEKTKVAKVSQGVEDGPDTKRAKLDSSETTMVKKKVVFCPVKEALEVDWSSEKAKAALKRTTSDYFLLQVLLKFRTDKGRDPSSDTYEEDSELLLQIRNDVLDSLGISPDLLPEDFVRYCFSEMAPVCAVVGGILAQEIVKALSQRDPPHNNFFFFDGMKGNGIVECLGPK
SUMO E1/E2, sequence (Q9UBT2 whole entry): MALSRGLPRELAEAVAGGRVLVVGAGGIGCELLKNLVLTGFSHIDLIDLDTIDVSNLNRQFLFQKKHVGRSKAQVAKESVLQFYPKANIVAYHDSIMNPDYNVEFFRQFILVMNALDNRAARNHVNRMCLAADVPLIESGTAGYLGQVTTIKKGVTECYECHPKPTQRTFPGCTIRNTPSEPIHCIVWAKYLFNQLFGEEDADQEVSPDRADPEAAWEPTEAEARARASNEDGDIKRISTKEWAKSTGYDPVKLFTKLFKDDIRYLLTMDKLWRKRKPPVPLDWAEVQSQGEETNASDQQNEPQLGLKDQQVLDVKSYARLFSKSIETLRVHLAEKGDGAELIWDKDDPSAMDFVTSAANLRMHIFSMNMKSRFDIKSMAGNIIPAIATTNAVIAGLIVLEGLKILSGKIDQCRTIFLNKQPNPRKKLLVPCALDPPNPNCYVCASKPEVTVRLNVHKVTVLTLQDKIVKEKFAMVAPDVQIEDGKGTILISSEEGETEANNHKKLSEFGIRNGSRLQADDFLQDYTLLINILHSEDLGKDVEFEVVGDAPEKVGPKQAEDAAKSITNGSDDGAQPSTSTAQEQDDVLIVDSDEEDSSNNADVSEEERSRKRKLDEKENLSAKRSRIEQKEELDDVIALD
SUMO E1/E2, sequence (P63279 whole entry): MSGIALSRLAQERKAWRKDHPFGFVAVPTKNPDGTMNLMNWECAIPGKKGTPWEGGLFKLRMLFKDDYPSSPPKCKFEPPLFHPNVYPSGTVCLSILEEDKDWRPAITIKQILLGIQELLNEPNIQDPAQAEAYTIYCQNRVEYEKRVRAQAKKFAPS

IC50 (Neutrophil collagenase): > 39.8 µM (inactive) | IC50 (Collagenase 3): > 39.8 µM (active)
Structure (SMILES): O=c1[nH]c(SCc2ccc(OC(F)(F)F)cc2)nc2c1CCC2

IC50 [9]: 0.384 µM (active) | IC50 [10]: 44.9 µM (active) | IC50 (Phosphomannomutase 2): 3.37 µM (active)
Structure (SMILES): O=c1c2ccc(F)cc2sn1-c1cc(Cl)ccc1Cl

More lines, now with the values behind:

Structure (SMILES): CCc1ccc(-c2nc(CN3CCCC(C(=O)NCCc4ccc(OC)c(OC)c4)C3)c(C)o2)cc1 (configuration not stated)
EC50 [1]: 5.02 µM (active) | EC50 [2]: 3.95 µM (active) | EC50 [3]: > 60 µM (not active) | EC50 [4]: 0.161 µM (active)

Structure (SMILES): O=C(C1=NN(c2ccccc2)C2C(=O)N(c3ccccc3)C(=O)C12)c1ccccc1 (configuration not stated)
EC50 (Caspase-3): > 85.3 µM (inactive) | IC50 [5]: > 55.7 µM (not active) | EC50 (Caspase-7): > 85.3 µM (inactive) | IC50 (Insulin-degrading enzyme): 25.5 µM (not active) | EC50 [6]: 14.6 µM (active)

Structure (SMILES): O=C(COC(=O)c1cc(-c2ccco2)nc2ccccc12)NC(=O)c1ccccc1
IC50 [7]: 8.83 µM (active) | IC50 [8]: 21.9 µM (active) | IC50 (SUMO E1/E2): 2.18 µM (active)
